# Measurements: patent publication US20090123565A9, “Copper-dependent non-traditional pro-inflammatory cytokine export and methods, compositions and kits relating thereto” (Maine Medical Center Research Institute, priority 2001, published 2009)
# Starred links: 1 amine or outer side, 2 acyl side, 3 side chain; linkers in the order of their positions; H or OH if unused. Positions of bridges follow the written chain, without caps; N, C: chain ends. Non-standard residues stand in square brackets, D forms with d. Residues, ends and D or L forms follow the SMILES beside them. Chains are numbered I, II in the order given. Actinocin(9to1) = Cc1c2oc3c(C)ccc(C(=O)[*:1])c3nc-2c(C(=O)[*:2])c(N)c1=O; NMeV = CN[C@H](C(=O)O)C(C)C; Sar = CNCC(=O)O
# Test system: IL1α release from NIH 3T3 cell transfectants
# Experiment: Heat shock-induced release of IL1α from NIH 3T3 cell transfectants (immunoblot of conditioned media)
# Type: cell-based, human
# Settings: actinomycin D 10 μg/ml
# Experimental: FIG. 5, comprising FIGS. 5A and 5B, depict the involvement of Cu^2+ in IL1α release. FIG. 5A is an image depicting results obtained using NIH 3T3 cells stably transfected with mIL1α-βGal. The cells were incubated for 18 hours at 37 C in the absence and presence of the Cu^2+ chelator, tetrathiomolybdate (TTM) as indicated and the untreated and treated cells either maintained at 37 C or subjected to heat shock as described in FIG. 3. The conditioned medium was evaluated for IL1α-βGal release by IL1α immunoblot analysis, and cell lysates from TTM-treated cells were used to monitor the intracellular level of IL1α-βGal expression. […] FIG. 5B is an image depicting release of IL1α-βGal in myc-S100A13 and IL1α-βGal NIH 3T3 cell cotransfectants and in insert-less vector and mIL1α-βGal NIH 3T3 cell transfectants in the presence and absence actinomycin D (10 μg/ml), as indicated, in response to heat shock. Conditioned media were processed and evaluated for IL1α-βGal immunoblot analysis as described in Tarantini et al. (2001).
# Stable NIH 3T3 cell transfectants were generated accordingly with the following cDNA constructs cloned into pMEXneo (Tarantini, et al. 2001; Tarantini, et al. 1995; Tarantini, et al. 1998; LaVallee, et al. 1998; Carreira, et al. 1998; Landriscina, et al., 2001): human S100A13 with an amino-terminal fusion to a 6 Myc Tag (Myc-S100A13) (Landriscina, et al., 2001); human Myc-S100A13ΔBR (Landriscina, et al., 2001); human mIL1α (residues 113-271); human mIL1α with a carboxy-terminal fusion to a βGalactosidase tag (mIL1α-βGal) (Tarantini, et al. 2001); and pIL1α (residues 1-271) with a carboxy-terminal fusion to βGalactosidase (pIL1α-βGal) (Tarantini, et al. 2001). Recombinant human mIL1α was provided by Hoffmann-LaRoche. Recombinant human S100A13, as well as S100A13ΔBR, a S100A13 construct with the basic residue rich domain (residues 88 to 98) deleted, were generated as previously described (Landriscina, et al., 2001).
# NIH 3T3 cell transfectants were grown to 70-80% confluency and prior to temperature stress, the cells were washed with serum-free DMEM. The heat shock was performed as previously described (Tarantini et al., 1995) in serum-free DMEM for 110 min at 42° C. Control cultures were incubated at 37° C. in serum-free DMEM. […] Immunoprecipitated and eluted proteins were resolved by 8% and 12% acrylamide SDS-PAGE, respectively, and evaluated by either IL1α (Tarantini, et al. 2001) or Myc (Landriscina, et al., 2001) immunoblot analysis. […] The effects of actinomycin D (Sigma Chemical Co., St. Louis, Mo.), cyclohexamide (Sigma) and tetrathiomolybdate (Sigma-Aldrich) on IL1α release were evaluated as previously reported (LaVallee et al., 1998).
smiles,measurement,setting,value
"Cc1c2oc3c(C)ccc(C(=O)N[C@@H]4C(=O)N[C@H](C(C)C)C(=O)N5CCC[C@H]5C(=O)N(C)CC(=O)N(C)[C@@H](C(C)C)C(=O)O[C@@H]4C)c3nc-2c(C(=O)N[C@@H]2C(=O)N[C@H](C(C)C)C(=O)N3CCC[C@H]3C(=O)N(C)CC(=O)N(C)[C@@H](C(C)C)C(=O)O[C@@H]2C)c(N)c1=O [actinomycin D] (I: T[dV]P[Sar][NMeV] / II: T[dV]P[Sar][NMeV]; ester I:1-I:C, II:1-II:C; linker I:N-II:N via Actinocin(9to1))",repression of export of IL1α-βGal in response to heat shock,Myc-S100A13 and IL1α-βGal NIH 3T3 cell cotransfectants,unable to repress
same,repression of release of IL1α-βGal in response to heat shock,insert-less vector and IL1α-βGal NIH 3T3 cell cotransfectants,able to repress
